pKd: −log10 of the molar value. Like-named read-outs stand apart in the source and are kept apart here.

In the experiment the target is WDR5 protein (Homo sapiens (Human), UniProt P61964). The experiment is described as follows: Surface Plasmon Resonance (SPR) assay. The format is binding. To be noted: SPR; for residence time: τ=1/koff, read-out: Residence Time (t, min).
Where [1] appears, read: Table 1, read-out: WDR5 binding affinity (KD).
Setting [2] is: Table 2, read-out: WDR5 binding affinity SPR (KD).

For orientation: pKd means the Kd on a negative log10 scale, so that one unit is a factor of ten. What is called residence time is the mean lifetime of the complex, commonly the reciprocal of the off-rate. For the compound `C[C@@H]1CN(c2ccc(-c3cc(CNC4CCCCC4)c(F)cc3F)cc2NC(=O)c2c[nH]c(=O)cc2C(F)(F)F)C[C@H](C)N1C` [Example 79, N-(5′-((cyclohexylamino)methyl)-2′,4′-difluoro-4-((3S,5R)-3,4,5-trimethylpiperazin-1-yl)-[1,1′-biphenyl]-3-yl)-6-oxo-4-(trifluoromethyl)-1,6-dihydropyridine-3-carboxamide], the residence time is 16.4 min. In addition, the pKd under setting [1] was 8.60. The pKd under setting [2] is 8.60.
For the compound `C[C@@H]1CN(c2ccc(-c3ccc(F)c(CNC4CCCCC4)c3F)cc2NC(=O)c2c[nH]c(=O)cc2C(F)(F)F)C[C@H](C)N1C` [Example 83, N-(3′-((cyclohexylamino)methyl)-2′,4′-difluoro-4-((3S,5R)-3,4,5-trimethylpiperazin-1-yl)-[1,1′-biphenyl]-3-yl)-6-oxo-4-(trifluoromethyl)-1,6-dihydropyridine-3-carboxamide], the residence time is 3.24 min. Also, under setting [1], the pKd was 8.00. Besides, the pKd under setting [2] was 7.99.
On the same counts, the results for `CN1CCN(c2ncc(-c3cc(CNC4CCCCC4)ccc3F)cc2NC(=O)c2c[nH]c(=O)cc2C(F)(F)F)CC1` [Example 85, N-(5-(5-((cyclohexylamino)methyl)-2-fluorophenyl)-2-(4-methylpiperazin-1-yl)pyridin-3-yl)-6-oxo-4-(trifluoromethyl)-1,6-dihydropyridine-3-carboxamide] are 0.78 min, 7.82 and 7.83.
On to `CN1CCN(c2ccc(-c3cc(CN4CCOCC4)ccc3Cl)cc2NC(=O)c2c[nH]c(=O)cc2C(F)(F)F)CC1` [Example 86, N-(2′-chloro-4-(4-methylpiperazin-1-yl)-5′-(morpholinomethyl)-[1,1′-biphenyl]-3-yl)-6-oxo-4-(trifluoromethyl)-1,6-dihydropyridine-3-carboxamide], for which the pKd under setting [1] was 7.46 and the pKd under setting [2] was 7.46.
For the compound `CN1CCCN(c2ccc(-c3cc(CN4CCOCC4)ccc3F)cc2NC(=O)c2c[nH]c(=O)cc2C(F)(F)F)CC1` [Example 88, N-(2′-fluoro-4-(4-methyl-1,4-diazepan-1-yl)-5′-(morpholinomethyl)-[1,1′-biphenyl]-3-yl)-6-oxo-4-(trifluoromethyl)-1,6-dihydropyridine-3-carboxamide], the residence time was 1.71 min. Also, the pKd under setting [1] is 7.74. For the same compound, the pKd under setting [2] was 7.74.
With `CN1CCCN(c2ccc(-c3cc(CN4CCOCC4)ccc3F)cc2NC(=O)c2cn(C)c(=O)cc2C(F)(F)F)CC1` [Example 89, N-(2′-fluoro-4-(4-methyl-1,4-diazepan-1-yl)-5′-(morpholinomethyl)-[1,1′-biphenyl]-3-yl)-1-methyl-6-oxo-4-(trifluoromethyl)-1,6-dihydropyridine-3-carboxamide], the residence time is 0.07 min. The pKd under setting [1] was 6.63. Under setting [2], the pKd is 6.63.
In the case of `Cc1cc(C(=O)Nc2cc(-c3cc(CN4CCOCC4)ccc3F)ccc2N2CCC(N(C)C)C2)cc(C)c1F` (stereo not drawn) [Example 91, N-(4-(3-(dimethylamino)pyrrolidin-1-yl)-2′-fluoro-5′-(morpholinomethyl)-[1,1′-biphenyl]-3-yl)-4-fluoro-3,5-dimethylbenzamide], the pKd runs as follows: under setting [1], 6.50; under setting [2], 6.50.
For the compound `Cc1cc(C(=O)Nc2cc(-c3cc(CN4CCOCC4)ccc3F)ccc2N2CCCN(C)CC2)cc(C)c1F` [Example 92, 4-fluoro-N-(2′-fluoro-4-(4-methyl-1,4-diazepan-1-yl)-5′-(morpholinomethyl)-[1,1′-biphenyl]-3-yl)-3,5-dimethylbenzamide], the pKd under setting [1] is 6.40 and the pKd under setting [2] was 6.40.
In the case of `Cc1cc(C(=O)Nc2cc(-c3cc(CN4CCOCC4)ccc3F)ccc2N2CC3CN(C)CC3C2)cc(C)c1F` (stereo not drawn) [Example 94, 4-fluoro-N-(2′-fluoro-4-(5-methylhexahydropyrrolo[3,4-c]pyrrol-2(1H)-yl)-5′-(morpholinomethyl)-[1,1′-biphenyl]-3-yl)-3,5-dimethylbenzamide], the pKd is below 6.70 under setting [1] and below 6.70 under setting [2].
As for `Cc1cc(C(=O)Nc2cc(-c3cc(CN4CCOCC4)ccc3F)ccc2N2CCN(CC(F)(F)F)CC2)cc(C)c1F` [Example 95, 4-fluoro-N-(2′-fluoro-5′-(morpholinomethyl)-4-(4-(2,2,2-trifluoroethyl)piperazin-1-yl)-[,1′-biphenyl]-3-yl)-3,5-dimethylbenzamide], the pKd is, setting by setting: under setting [1], below 6.70; under setting [2], below 6.70.
For `O=C(Nc1cc(-c2cc(CN3CCOCC3)ccc2F)ccc1N1CCN(CC(F)(F)F)CC1)c1c[nH]c(=O)cc1C(F)(F)F` [Example 97, N-(2′-fluoro-5′-(morpholinomethyl)-4-(4-(2,2,2-trifluoroethyl)piperazin-1-yl)-[,1′-biphenyl]-3-yl)-6-oxo-4-(trifluoromethyl)-1,6-dihydropyridine-3-carboxamide], the pKd is below 6.70 under setting [1] and below 6.70 under setting [2].
Consider `CN1CC2CN(c3ccc(-c4cc(CN5CCOCC5)ccc4F)cc3NC(=O)c3c[nH]c(=O)cc3C(F)(F)F)CC2C1` (stereo not drawn) [Example 100, N-(2′-fluoro-4-(5-methylhexahydropyrrolo[3,4-c]pyrrol-2(1H)-yl)-5′-(morpholinomethyl)-[1,1′-biphenyl]-3-yl)-6-oxo-4-(trifluoromethyl)-1,6-dihydropyridine-3-carboxamide], for which the pKd is 5.23 under setting [1] and 5.23 under setting [2].
For the compound `CN(C)C1CCN(c2ccc(-c3cc(CN4CCOCC4)ccc3F)cc2NC(=O)c2cn(C)c(=O)cc2C(F)(F)F)C1` (stereo not drawn) [Example 101, N-(4-(3-(dimethylamino)pyrrolidin-1-yl)-2′-fluoro-5′-(morpholinomethyl)-[1,1′-biphenyl]-3-yl)-1-methyl-6-oxo-4-(trifluoromethyl)-1,6-dihydropyridine-3-carboxamide], the pKd is, setting by setting: under setting [1], 5.64; under setting [2], 5.64.
`CN1CCN(c2ccc(-c3cc(CN4CCOCC4)ccc3F)cc2NC(=O)c2cc(F)cc3[nH]cnc23)CC1` [Example 102, 6-fluoro-N-(2′-fluoro-4-(4-methylpiperazin-1-yl)-5′-(morpholinomethyl)-[1,1′-biphenyl]-3-yl)-1H-benzo[d]imidazole-4-carboxamide]: the pKd is below 6.70 under setting [1] and below 6.70 under setting [2].
With `CN1CCN(c2ccc(-c3cc(CN4CCOCC4)ccc3F)cc2NC(=O)c2nc3ccccc3[nH]2)CC1` [Example 103, N-(2′-fluoro-4-(4-methylpiperazin-1-yl)-5′-(morpholinomethyl)-[1,1′-biphenyl]-3-yl)-1H-benzo[d]imidazole-2-carboxamide], the pKd is below 6.70 under setting [1] and below 6.70 under setting [2].
With `C[C@H]1CN(C)CCN1c1ccc(-c2cc(CN3CCOCC3)ccc2F)cc1NC(=O)c1c[nH]c(=O)cc1C(F)(F)F` [Example 104, (S)—N-(4-(2,4-dimethylpiperazin-1-yl)-2′-fluoro-5′-(morpholinomethyl)-[1,1′-biphenyl]-3-yl)-6-oxo-4-(trifluoromethyl)-1,6-dihydropyridine-3-carboxamide], the pKd was 5.40 under setting [1] and 5.40 under setting [2].
Regarding `CN1CCN(c2ccc(-c3cc(CN4CCOCC4)ccc3F)cc2NC(=O)c2ccc(=O)[nH]c2)CC1` [Example 105, N-(2′-fluoro-4-(4-methylpiperazin-1-yl)-5′-(morpholinomethyl)-[1,1′-biphenyl]-3-yl)-6-oxo-1,6-dihydropyridine-3-carboxamide], the pKd is, setting by setting: under setting [1], 5.71; under setting [2], 5.71.
Take `CC(=O)Nc1cc(C)c(C(=O)Nc2cc(-c3cc(CN4CCOCC4)ccc3F)ccc2N2CCN(C)CC2)cn1` [Example 106, 6-acetamido-N-(2′-fluoro-4-(4-methylpiperazin-1-yl)-5′-(morpholinomethyl)-[1,1′-biphenyl]-3-yl)-4-methylnicotinamide]: the residence time was found to be 3.2 min. Besides, the pKd under setting [1] is 8.08. For the same compound, under setting [2], the pKd is 6.08.
`COc1cc(C(F)(F)F)c(C(=O)Nc2cc(-c3cc(CN4CCN(CC5CC5)CC4)ccc3F)ccc2N2CCN(C)CC2)cn1` [Example 107, N-(5′-((4-(cyclopropylmethyl)piperazin-1-yl)methyl)-2′-fluoro-4-(4-methylpiperazin-1-yl)-[1,1′-biphenyl]-3-yl)-6-methoxy-4-(trifluoromethyl)nicotinamide]: the pKd by setting is: under setting [1], below 6.70; under setting [2], below 6.70.
Regarding `CNc1cc(C(F)(F)F)c(C(=O)Nc2cc(-c3cc(CN4CCOCC4)ccc3F)ccc2N2CCN(C)CC2)cn1` [Example 108, N-(2′-fluoro-4-(4-methylpiperazin-1-yl)-5′-(morpholinomethyl)-[1,1′-biphenyl]-3-yl)-6-(methylamino)-4-(trifluoromethyl)nicotinamide], the pKd by setting is: under setting [1], below 6.70; under setting [2], below 6.70.
For `CN1CCN(c2ccc(-c3cc(CN4CCOCC4)ccc3F)cc2NC(=O)c2cnc(N)cc2C(F)(F)F)CC1` [Example 109, 6-amino-N-(2′-fluoro-4-(4-methylpiperazin-1-yl)-5′-(morpholinomethyl)-[1,1′-biphenyl]-3-yl)-4-(trifluoromethyl)nicotinamide], the pKd runs as follows: under setting [1], below 6.70; under setting [2], below 6.70.
For `C[C@@H]1CN(c2ccc(-c3ccc(F)c(CN(C)C4COC4)c3F)cc2NC(=O)c2c[nH]c(=O)cc2C(F)(F)F)C[C@H](C)N1C` [Example 112, N-(2′,4′-difluoro-3′-((methyl(oxetan-3-yl)amino)methyl)-4-((3S,5R)-3,4,5-trimethylpiperazin-1-yl)-[1,1′-biphenyl]-3-yl)-6-oxo-4-(trifluoromethyl)-1,6-dihydropyridine-3-carboxamide], the residence time was 1.3 min. For the same compound, under setting [1], the pKd was 7.64. Under setting [2], the pKd was 7.64.
With `C[C@@H]1CN(c2ccc(-c3c(F)cc(CNC4CCCCC4)cc3F)cc2NC(=O)c2c[nH]c(=O)cc2C(F)(F)F)C[C@H](C)N1C` [Example 115, N-(4′-((cyclohexylamino)methyl)-2′,6′-difluoro-4-((3S,5R)-3,4,5-trimethylpiperazin-1-yl)-[1,1′-biphenyl]-3-yl)-6-oxo-4-(trifluoromethyl)-1,6-dihydropyridine-3-carboxamide], the residence time is 1.5 min. Under setting [1], the pKd is 7.26. Besides, under setting [2], the pKd was 7.26.

These data come from patent US11174250B2, “Substituted carboxamides as inhibitors of WDR5 protein-protein binding” (PROPELLON THERAPEUTICS INC., priority 2016, dated 2021).
